What all share (format): biochemical
Test [1] concerns bovine serum albumin (BSA). In words: Inhibition of ONOO−-mediated albumin nitration (western blot, 3-nitrotyrosine antibody). As to conditions: ONOO− 200 µM. As to the method:
Figure 5 Dose-depended inhibition of ONOO^−-mediated albumin nitration by plastoquinones. Mixtures of test samples, bovine serum albumin (BSA), and ONOO^− were incubated with shaking at 37 °C for 30 min. The reactant was resolved in 10% polyacrylamide gel via electrophoresis. (a) sargahydroquinoic acid; (b) sargachromenol; and (c) sargaquinoic acid were used at the indicated concentrations; (d) Quantification of band intensity was calculated using CS Analyzer 3.00 (ATTO Corp., Tokyo, Japan). ^# p < 0.05 indicates a significant difference from the untreated normal group, * p < 0.05 indicate significant differences from the ONOO^− treated control.
The inhibition of ONOO^–-mediated nitrated albumin was evaluated using the method of Aulak et al.. Samples were added to bovine serum albumin (BSA) and mixed with ONOO^− (200 µM). After 10 min incubation (room temperature), the sample solution was added to Bio-Rad 2X Laemmli Sample buffer with mercaptoethanol and then boiled for 7 min. The reactant was resolved in 10% polyacrylamide gel via electrophoresis and transferred onto PVDF membranes. Pre-stained blue protein markers were used for molecular weight determination. Monoclonal anti-nitrotyrosine antibody (85 kDa) was used as a primary antibody and horseradish peroxidase-conjugated sheep anti-mouse secondary antibody was used as a secondary antibody. Antibody labeling was visualized using the Supersignal West Pico Chemiluminescent substrate (Pierce Chemical Co., Rockford, IL, USA). Densitometric analysis of the western blot results was determined using CS analyzer v3.00 (ATTO Corp.).

For test [2], the target named is T1, PTP1B (human recombinant) (Homo sapiens, UniProt P18031).
T1 construct: purchased Biomol International LP (Plymouth Meeting, PA, USA)
T1 sequence (P18031 1-435): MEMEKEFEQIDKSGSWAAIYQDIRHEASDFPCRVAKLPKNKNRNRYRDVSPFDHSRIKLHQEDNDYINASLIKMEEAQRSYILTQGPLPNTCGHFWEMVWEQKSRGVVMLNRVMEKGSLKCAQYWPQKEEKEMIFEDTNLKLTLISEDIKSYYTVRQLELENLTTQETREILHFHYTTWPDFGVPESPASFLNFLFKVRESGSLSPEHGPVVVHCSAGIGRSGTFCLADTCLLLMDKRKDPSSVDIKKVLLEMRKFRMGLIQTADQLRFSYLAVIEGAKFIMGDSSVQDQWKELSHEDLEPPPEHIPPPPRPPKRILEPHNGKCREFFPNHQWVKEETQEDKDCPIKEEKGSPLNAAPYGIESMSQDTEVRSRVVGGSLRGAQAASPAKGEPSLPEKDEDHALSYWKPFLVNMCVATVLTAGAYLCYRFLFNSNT
In words: PTP1B inhibitory assay (pNPP substrate). As to conditions: log-dose inhibition curve; mean ± SEM of triplicate experiments. The procedure: Dithiothreitol (DTT) was purchased from Bio-Rad Laboratories (Hercules, CA, USA) and PTP1B (human recombinant) was purchased from Biomol International LP (Plymouth Meeting, PA, USA). ONOO^− was purchased from Molecular Probes Cayman (Ann Arbor, MI, USA). All other chemicals and solvents used were purchased from E. Merck, Fluka, and Sigma-Aldrich, unless otherwise stated. The PTP1B inhibitory activities of the plastoquinones were evaluated using pNPP [68]. Recombinant PTP1B enzyme (0.5 units diluted with a PTP1B reaction buffer) was added with or without sample. The plate was pre-incubated at 37 °C for 10 min and then substrate (2 mM pNPP) was added. Following incubation at 37 °C for 15 min, the enzymatic reaction was terminated by the addition of 10 M NaOH.

The target of test [3] is T1, PTP1B (human recombinant). The test is described as follows: Kinetic study against PTP1B (Dixon plots). The conditions noted are these: Dixon plot; pNPP 0.5, 1.0, 2.0 mM. The procedure:
(§1) In an attempt to explain the mode of enzymatic inhibition of sargahydroquinoic acid, sargachromenol, and sargaquinoic acid, kinetic analysis was performed at different concentrations of the substrate (pNPP for PTP1B and pNPG for α-glucosidase) and inhibitor.
Figure 3 Dixon plots for PTP1B inhibition of compounds. (a) sargahydroquinoic acid; (b) sargachromenol and (c) sargaquinoic acid were tested in the presence of different concentrations of substrate: 2.0 mM (●); 1.0 mM (ο); 0.5 mM (▼).
(§2) To determine the modes of enzyme inhibition, Dixon plots were used. The kinetic analyses were performed at different concentrations of substrate (0.625, 1.25, and 2.5 mM pNPG for α-glucosidase; 0.5, 1.0, and 2.0 mM pNPP for PTP1B) and various concentrations of plastoquinones (0, 0.4, 2.0, and 10.0 µM for PTP1B and 0, 25, 50 and 100 µM for α-glucosidase, respectively). Enzymatic inhibition of the test plastoquinones was evaluated by monitoring the effects of different concentrations of the substrate in the Dixon plots (single reciprocal plots). The enzymatic procedure consisted of the same aforementioned assay method. The inhibition constants (Ki) were determined via interpretation of the Dixon plots, where the value of the x-axis implies -Ki.

Another test has as its target Yeast α-glucosidase (Saccharomyces cerevisiae, UniProt P53341). The test is described as follows: Kinetic study against α-glucosidase (Dixon plots). The conditions noted are these: Dixon plot; pNPG 0.625, 1.25, 2.5 mM. As to the method: as §1
Figure 4 Dixon plots for α-glucosidase inhibition of compounds. (a) sargachromenol and (b) sargaquinoic acid were tested in the presence of different concentrations of substrate: 2.5 mM (●); 1.25 mM (ο); 0.625 mM (▼).
as §2

The source of these data is PMC5742828, “α-Glucosidase and Protein Tyrosine Phosphatase 1B Inhibitory Activity of Plastoquinones from Marine Brown Alga Sargassum serratifolium” (Marine Drugs, 2017).

Sequence of Yeast α-glucosidase (P53341 whole entry): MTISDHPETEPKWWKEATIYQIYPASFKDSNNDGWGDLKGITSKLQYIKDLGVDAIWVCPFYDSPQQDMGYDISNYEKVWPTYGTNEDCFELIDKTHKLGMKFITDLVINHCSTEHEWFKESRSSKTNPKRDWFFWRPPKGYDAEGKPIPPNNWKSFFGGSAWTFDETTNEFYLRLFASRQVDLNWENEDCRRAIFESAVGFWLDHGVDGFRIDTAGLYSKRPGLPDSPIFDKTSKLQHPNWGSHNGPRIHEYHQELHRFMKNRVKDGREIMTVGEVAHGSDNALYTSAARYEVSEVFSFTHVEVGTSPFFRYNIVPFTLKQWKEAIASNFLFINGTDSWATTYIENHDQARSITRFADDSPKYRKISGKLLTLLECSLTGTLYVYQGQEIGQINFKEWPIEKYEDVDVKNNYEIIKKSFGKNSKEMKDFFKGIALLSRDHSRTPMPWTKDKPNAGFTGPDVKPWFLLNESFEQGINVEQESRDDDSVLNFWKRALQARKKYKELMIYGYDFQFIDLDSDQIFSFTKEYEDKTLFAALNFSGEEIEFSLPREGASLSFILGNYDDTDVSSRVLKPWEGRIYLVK

Take `CC(C)=CCC/C(=C/CC/C(C)=C/CC/C(C)=C/CC1=CC(=O)C=C(C)C1=O)C(=O)O` [Sargaquinoic acid, sargaquinoic acid]: in test [1] (pretreatment at 5–25 μM), the “Inhibition of ONOO−-mediated albumin nitration” value was “markedly dose-dependent inhibition”. Besides, the IC50 in test [2] turned out to be 14.15 ± 0.02 µM. In test [3], the Ki is 5.2 µM and the “PTP1B Inhibition Type” value is recorded as “Mixed”. For the same compound, the “α-Glucosidase Inhibition Type” value on Yeast α-glucosidase was “Mixed”.
Turning to `CC(C)=CCC/C(=C/CC/C(C)=C/CCC1(C)C=Cc2cc(O)cc(C)c2O1)C(=O)O` (centres unmarked) [Sargachromenol, sargachromenol], in test [1] (pretreatment at 2.5–10 μM), the “Inhibition of ONOO−-mediated albumin nitration” value is given as “strong inhibition”. Also, the IC50 in test [2] worked out at 11.8 ± 3.35 µM. Further, in test [3], the Ki was determined as 5.85 µM and the “PTP1B Inhibition Type” value is “Non-competitive”. Also, the “α-Glucosidase Inhibition Type” value on Yeast α-glucosidase is on record as “Non-competitive”.
Regarding `CC(C)=CCC/C(=C/CC/C(C)=C/CC/C(C)=C/Cc1cc(O)cc(C)c1O)C(=O)O` [Sargahydroquinoic acid, sargahydroquinoic acid], the “Inhibition of ONOO−-mediated albumin nitration” value in test [1] (pretreatment at 5–25 μM) is “markedly dose-dependent inhibition”. In addition, the IC50 in test [2] was 5.14 ± 0.07 µM. In addition, in test [3], the inhibition constant Ki worked out at 2.21 µM and the “PTP1B Inhibition Type” value is on record as “Mixed”.

Broadly, the IC50 is the concentration that gives 50% inhibition. Broadly, the Ki is a dissociation constant, usually derived from enzyme kinetics or from competition with a known ligand.
